Tests used:
Format in all cases: cell-based
Conditions in all cases: 10 μM
Cx32 GJ channels = Cx32 GJ channels (Rattus norvegicus, UniProt P08033); test: Cx32 junctional current, dual whole-cell voltage-clamp in N2A cells
Cx46 GJ channels = Cx46 GJ channels (Rattus norvegicus, UniProt P29414); test: Cx46 junctional current, dual whole-cell voltage-clamp in N2A cells
[1] = biological target: channels built out of Cx36 (Homo sapiens, UniProt Q9UKL4); test: Cx36 junctional current, dual whole-cell patch-clamp
Chain of channels built out of Cx36 (Q9UKL4 whole entry): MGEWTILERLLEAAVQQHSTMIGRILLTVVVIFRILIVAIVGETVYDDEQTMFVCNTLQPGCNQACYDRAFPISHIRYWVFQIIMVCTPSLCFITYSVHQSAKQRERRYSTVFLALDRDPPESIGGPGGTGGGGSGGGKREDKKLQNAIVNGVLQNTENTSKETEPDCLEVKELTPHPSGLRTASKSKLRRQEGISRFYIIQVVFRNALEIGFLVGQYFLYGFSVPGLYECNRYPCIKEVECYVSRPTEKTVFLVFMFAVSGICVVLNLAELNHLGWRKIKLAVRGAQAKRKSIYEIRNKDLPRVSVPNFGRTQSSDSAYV

Chain of Cx32 GJ channels (P08033 whole entry): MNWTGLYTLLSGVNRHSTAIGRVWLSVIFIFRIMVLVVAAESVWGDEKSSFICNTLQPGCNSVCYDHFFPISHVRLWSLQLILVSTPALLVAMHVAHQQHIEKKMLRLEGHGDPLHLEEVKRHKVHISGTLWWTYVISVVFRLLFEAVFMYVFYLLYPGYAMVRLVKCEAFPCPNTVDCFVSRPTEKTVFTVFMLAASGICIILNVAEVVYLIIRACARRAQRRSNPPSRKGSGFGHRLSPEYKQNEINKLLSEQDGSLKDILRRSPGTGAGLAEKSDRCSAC

Clc1ccccc1C(c1ccccc1)(c1ccccc1)n1ccnc1 [Clotrimazole]
no effect: inhibition of Cx32 GJ channel current / reduction of junction conductance (Cx32 GJ channels) | inhibition of Cx46 GJ channel current / reduction of junction conductance (Cx46 GJ channels) | effect on channels built out of Cx36 [1]

— PMC3368247 (Frontiers in Pharmacology, 2012)
